Our source for the T/C values is PubChem BioAssay AID248 (DTP/NCI, 2004).

Several values for one entry are separate records, joined by “and”; a condition that tells them apart may be missing. Equal entries are not always repeated. Toxic doses and inconclusive results are not listed.

This assay has as its system L1210 leukemia ip in BDF1 mice, survival T/C. Kind of assay: NCI In Vivo Anticancer Drug Screen. Data for tumor model L1210 Leukemia (intraperitoneal) in B6D2F1 (BDF1) mice. As to conditions: endpoint: mean survival time, higher = longer survival. The essentials: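 Antitumor effect is assessed in tumor-bearing animals. Survival in the compound arm is compared with a vehicle-dosed control arm and expressed as their quotient.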

[1] abbreviates: dose: 100.0 mg/kg/injection, schedule: Q01DX009 (ip), vehicle: Klucel (hydroxypropylcellulose) (HPC).
The mark [2] stands for this setting: dose: 200.0 mg/kg/injection, schedule: Q01DX009 (ip), vehicle: Klucel (hydroxypropylcellulose) (HPC).
Where [3] appears, read: dose: 400.0 mg/kg/injection, schedule: Q01DX009 (ip), vehicle: Klucel (hydroxypropylcellulose) (HPC).
[4] abbreviates: dose: 100.0 mg/kg/injection, schedule: Q01DX001 (ip), vehicle: carboxymethylcellulose (CMC).
Where [5] appears, read: dose: 200.0 mg/kg/injection, schedule: Q01DX001 (ip), vehicle: carboxymethylcellulose (CMC).
The mark [6] stands for this setting: dose: 400.0 mg/kg/injection, schedule: Q01DX001 (ip), vehicle: carboxymethylcellulose (CMC).
Setting [7] is: dose: 75.0 mg/kg/injection, schedule: Q04DX003 (ip), vehicle: saline.
Setting [8] is: dose: 300.0 mg/kg/injection, schedule: Q04DX003 (ip), vehicle: saline.
Setting [9] is: dose: 100.0 mg/kg/injection, schedule: Q04DX003 (ip), vehicle: saline with Tween-80.
Where [10] appears, read: dose: 200.0 mg/kg/injection, schedule: Q04DX003 (ip), vehicle: saline with Tween-80.
Setting [11] is: dose: 400.0 mg/kg/injection, schedule: Q04DX003 (ip), vehicle: saline with Tween-80.
Where [12] appears, read: dose: 100.0 mg/kg/injection, schedule: Q04DX003 (ip), vehicle: Klucel (hydroxypropylcellulose) (HPC).
Where [13] appears, read: dose: 200.0 mg/kg/injection, schedule: Q04DX003 (ip), vehicle: Klucel (hydroxypropylcellulose) (HPC).
Setting [14] is: dose: 400.0 mg/kg/injection, schedule: Q04DX003 (ip), vehicle: Klucel (hydroxypropylcellulose) (HPC).
[15] abbreviates: dose: 25.0 mg/kg/injection, schedule: Q01DX009 (ip), vehicle: saline with Tween-80.
[16] abbreviates: dose: 50.0 mg/kg/injection, schedule: Q01DX009 (ip), vehicle: saline with Tween-80.
Setting [17] is: dose: 100.0 mg/kg/injection, schedule: Q01DX009 (ip), vehicle: saline with Tween-80.

In the case of `COc1ccc(/C=N/NC(=O)c2ccc(Cl)c(Cl)c2)cc1`, the T/C under setting [1] is 91 % of control, the T/C under setting [2] was 100 % of control and the T/C under setting [3] was 90 % of control.
On to `Cc1nn(C(N)=S)c(C)c1N=Nc1cccc(Cl)c1`, for which the T/C is, setting by setting: (dose: 75.0 mg/kg/injection, schedule: Q01DX001 (ip), vehicle: other) 96 % of control; (dose: 150.0 mg/kg/injection, schedule: Q01DX001 (ip), vehicle: other) 100 % of control; (dose: 300.0 mg/kg/injection, schedule: Q01DX001 (ip), vehicle: other) 105 % of control.
Take `O=C1c2cc([N+](=O)[O-])ccc2SC2C=CSC12` (configuration not stated): the T/C by setting is: under setting [4], 94 % of control; under setting [5], 108 % of control; under setting [6], 100 % of control.
`CCCCC#CC(=O)OCCCC`: the T/C runs as follows: (dose: 100.0 mg/kg/injection, schedule: Q04DX002 (ip), vehicle: saline) 94 % of control; (dose: 200.0 mg/kg/injection, schedule: Q04DX002 (ip), vehicle: saline) 97 % of control; (dose: 400.0 mg/kg/injection, schedule: Q04DX002 (ip), vehicle: saline) 102 % of control.
On to `CCN(CC)CCCNc1nnc2c(=O)n(C)c(=O)n(C)c2n1`, for which the T/C is 112 % of control under setting [7]; 93 % of control (dose: 150.0 mg/kg/injection, schedule: Q04DX003 (ip), vehicle: saline); 100 % of control under setting [8].
As to `CCCCN(CCCC)CP(=O)(CN(CCCC)CCCC)CN(CCCC)CCCC`, the T/C is 93 % of control under setting [9], 96 % of control under setting [10] and 111 % of control under setting [11].
Regarding `CCO/N=C1\C(C)(C)C(C)(C)C(C)(C)C1(C)SS(=O)(=O)O` (configuration not stated), the T/C was 101 % of control (dose: 75.0 mg/kg/injection, schedule: Q04DX002 (ip), vehicle: saline); 96 % of control (dose: 150.0 mg/kg/injection, schedule: Q04DX002 (ip), vehicle: saline); 93 % of control (dose: 300.0 mg/kg/injection, schedule: Q04DX002 (ip), vehicle: saline).
Take `CSc1nc2ccccc2s1`: the T/C by setting is: under setting [1], 97 % of control; under setting [12], 105 % of control; under setting [2], 100 % of control; under setting [13], 104 % of control; under setting [14], 95 % of control.
For the compound `COc1cccc(CCNC(=O)CCN2C(=O)c3ccccc3C2=O)c1`, the T/C was 94 % of control (dose: 50.0 mg/kg/injection, schedule: Q01DX001 (ip), vehicle: carboxymethylcellulose (CMC)); 96 % of control under setting [4]; 100 % of control under setting [5]; 100 % of control under setting [6].
On to `CC(C)SCC(NC(=O)/C=C/c1ccccc1)C(=O)O` (configuration not stated), for which the T/C is, setting by setting: (dose: 50.0 mg/kg/injection, schedule: Q04DX003 (ip), vehicle: other) 97 % of control; (dose: 100.0 mg/kg/injection, schedule: Q04DX003 (ip), vehicle: other) 101 % of control; (dose: 200.0 mg/kg/injection, schedule: Q04DX003 (ip), vehicle: other) 95 % of control.
As for `COc1cc2[nH]c(C)c(CCN3CCN(c4ccccc4)CC3)c2cc1OC`, the T/C is 104 % of control (dose: 3.12 mg/kg/injection, schedule: Q01DX009 (ip), vehicle: Klucel (hydroxypropylcellulose) (HPC)); 108 % of control (dose: 6.25 mg/kg/injection, schedule: Q01DX009 (ip), vehicle: Klucel (hydroxypropylcellulose) (HPC)); 96 % of control (dose: 12.5 mg/kg/injection, schedule: Q01DX009 (ip), vehicle: Klucel (hydroxypropylcellulose) (HPC)); 105 % of control (dose: 25.0 mg/kg/injection, schedule: Q01DX009 (ip), vehicle: Klucel (hydroxypropylcellulose) (HPC)); 106 % of control (dose: 25.0 mg/kg/injection, schedule: Q04DX003 (ip), vehicle: Klucel (hydroxypropylcellulose) (HPC)); 106 % of control (dose: 50.0 mg/kg/injection, schedule: Q04DX003 (ip), vehicle: Klucel (hydroxypropylcellulose) (HPC)).
`O=c1[nH]cc(-c2ccccc2)c(=O)[nH]1`: the T/C was 98 % of control (dose: 100.0 mg/kg/injection, schedule: Q01DX009 (ip), vehicle: saline); 95 % of control (dose: 100.0 mg/kg/injection, schedule: Q04DX003 (ip), vehicle: saline); 104 % of control (dose: 200.0 mg/kg/injection, schedule: Q01DX009 (ip), vehicle: saline); 95 % of control (dose: 200.0 mg/kg/injection, schedule: Q04DX003 (ip), vehicle: saline); 104 % of control (dose: 400.0 mg/kg/injection, schedule: Q01DX009 (ip), vehicle: saline); 101 % of control (dose: 400.0 mg/kg/injection, schedule: Q04DX003 (ip), vehicle: saline).
Consider `C=CCn1c2ccccc2c2c(C)c3cnccc3c(C)c21`, for which the T/C was 97 % of control under setting [15]; 111 % of control (dose: 37.5 mg/kg/injection, schedule: Q04DX003 (ip), vehicle: saline); 102 % of control under setting [16]; 119 % of control (dose: 50.0 mg/kg/injection, schedule: Q04DX003 (ip), vehicle: saline with Tween-80); 186 % of control (dose: 75.0 mg/kg/injection, schedule: Q01DX009 (ip), vehicle: saline with Tween-80); 163 % of control under setting [7]. The T/C under setting [17] was 111 % of control; the T/C (dose: 125.0 mg/kg/injection, schedule: Q04DX003 (ip), vehicle: saline with Tween-80) is 184 % of control; the T/C (dose: 150.0 mg/kg/injection, schedule: Q01DX009 (ip), vehicle: saline with Tween-80) was 172 % of control; the T/C under setting [8] is 156 % of control.
For the compound `Cc1nc(N)[nH]c(=O)c1CCCNCc1ccccc1`, the T/C reads like this: (dose: 100.0 mg/kg/injection, schedule: Q01DX001 (ip), vehicle: Klucel (hydroxypropylcellulose) (HPC)) 96 % of control; (dose: 200.0 mg/kg/injection, schedule: Q01DX001 (ip), vehicle: Klucel (hydroxypropylcellulose) (HPC)) 94 % of control; (dose: 400.0 mg/kg/injection, schedule: Q01DX001 (ip), vehicle: Klucel (hydroxypropylcellulose) (HPC)) 94 % of control.
Consider `Cc1noc(C)c1C=O`, for which the T/C is 102 % of control under setting [12] and 95 % of control under setting [13].
Regarding `CC(CCl)NC(=O)Nc1cccc2c1CCCC2` (configuration not stated), the T/C under setting [1] was 102 % of control; the T/C under setting [12] is 106 % of control; the T/C under setting [2] was 103 % of control; the T/C under setting [13] is 106 % of control; the T/C under setting [3] is 97 % of control; the T/C under setting [14] is 103 % of control.
Take `COc1ccccc1C(=O)N/N=C/c1ccc(O)cc1`: the T/C by setting is: under setting [1], 101 % of control; under setting [2], 97 % of control; under setting [3], 94 % of control.
Regarding `C(=Nc1ccc(N=Cc2ccco2)cc1)c1ccco1`, the T/C runs as follows: (dose: 87.5 mg/kg/injection, schedule: Q01DX009 (ip), vehicle: Klucel (hydroxypropylcellulose) (HPC)) 93 % of control; (dose: 175.0 mg/kg/injection, schedule: Q01DX009 (ip), vehicle: Klucel (hydroxypropylcellulose) (HPC)) 100 % of control; (dose: 350.0 mg/kg/injection, schedule: Q01DX009 (ip), vehicle: Klucel (hydroxypropylcellulose) (HPC)) 97 % of control.
`CC(=O)NC(CSCc1c2ccccc2c(C)c2ccccc12)C(=O)O` (configuration not stated): the T/C is 97 % of control under setting [15]; 101 % of control under setting [16]; 97 % of control and 92 % of control under setting [17]; 94 % of control under setting [9]; 88 % of control (dose: 200.0 mg/kg/injection, schedule: Q01DX009 (ip), vehicle: saline with Tween-80); 96 % of control under setting [10]. For the same compound, the T/C under setting [11] is 96 % of control.
For `CC(=O)OC1CC2CCC3C4CC=C(C(C)=O)C4(C)CCC3C2(C)CC1OC(C)=O` (configuration not stated), the T/C reads like this: (dose: 75.0 mg/kg/injection, schedule: Q04DX003 (ip), vehicle: other) 97 % of control; (dose: 150.0 mg/kg/injection, schedule: Q04DX003 (ip), vehicle: other) 97 % of control; (dose: 300.0 mg/kg/injection, schedule: Q04DX003 (ip), vehicle: other) 94 % of control.
